This note sets out measurements from US20030220369A1, “Heterocyclic sulfonamide derivatives and their use for potentiating glutamate receptor function” (priority 2003, published 2003).

Broadly, the melting point is the temperature of the solid-liquid transition. `CC(C)S(=O)(=O)NCC(C)(F)c1ccc(-c2cccc3c2CC(=O)N3)cc1` (stereo not shown) [Example 9, 4-[4-(1-fluoro-1-methyl-2-{[methylethyl)sulfonylamino}-ethyl)phenyl]indolin-2one] showed a melting point of 86 to 87 °C.
